Results as given in US20080248511A1, “METHODS TO QUENCH LIGHT FROM OPTICAL REACTIONS” (priority 2007, published 2008).

Legend:
[1] = molecular target: firefly luciferase (Photinus pyralis, UniProt P08659); assay: Non-detergent compound screen, firefly luciferase (Example 6); format: biochemical; conditions: 0.5% Tergitol NP-9, 0.03% BDDABr; for remaining activity at 10 µM / remaining activity at 100 µM / remaining activity at 1000 µM: read-out: Retained Firefly Luciferase Value (%)
Procedure: (§1) Each compound was diluted into 200 mM MOPS pH 6.7, 4 μM MgSO4, 1 mM CDTA, 0.5% Tergitol NP-9, 0.05% Mazu-DF-204, 0.03% BDDABr, 30 mM thiourea, 1 mM bis-(2-mercaptoethylsulfone) (BMS), 4 μM CoA, and 1 μM 5-fluoroluciferin. Just prior to the luciferase reaction, 0.1% Prionex® (Pentapharm) and 2.9 μM coelenterazine-h (Promega) were added to each solution.
(§2) The firefly luciferase and Renilla luciferase enzymes were diluted as described in Examples 3 and 5. The luciferase reactions were initiated by adding 50 μl of the firefly luciferase and Renilla luciferase enzyme solution to 50 μl of reagent solution. The reactions were performed as described above. The retained Renilla and firefly luciferase-mediated luminescence and selectivity values for each inhibitor tested are listed in Table 6.

[2] = molecular target: T1, Renilla luciferase (Renilla reniformis, UniProt P27652); assay: Non-detergent compound screen, Renilla luciferase (Example 6); format: biochemical; conditions: for Retained Renilla Luciferase Value (%) / remaining activity at 10 µM / remaining activity at 100 µM / remaining activity at 1000 µM: 0.5% Tergitol NP-9, 0.03% BDDABr; for remaining activity at 10 µM / remaining activity at 100 µM / remaining activity at 1000 µM: read-out: Retained Renilla Luciferase Value (%)
T1 sequence (P27652 1-311): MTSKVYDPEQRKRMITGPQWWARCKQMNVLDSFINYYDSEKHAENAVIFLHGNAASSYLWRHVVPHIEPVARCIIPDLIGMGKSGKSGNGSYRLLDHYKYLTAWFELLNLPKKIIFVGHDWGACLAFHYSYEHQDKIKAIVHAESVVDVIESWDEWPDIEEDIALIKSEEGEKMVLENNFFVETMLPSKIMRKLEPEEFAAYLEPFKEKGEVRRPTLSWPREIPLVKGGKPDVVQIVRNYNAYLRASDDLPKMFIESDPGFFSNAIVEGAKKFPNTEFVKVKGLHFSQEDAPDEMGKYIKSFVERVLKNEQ
Procedure: as §1, §2

Sequence of firefly luciferase (P08659 whole entry): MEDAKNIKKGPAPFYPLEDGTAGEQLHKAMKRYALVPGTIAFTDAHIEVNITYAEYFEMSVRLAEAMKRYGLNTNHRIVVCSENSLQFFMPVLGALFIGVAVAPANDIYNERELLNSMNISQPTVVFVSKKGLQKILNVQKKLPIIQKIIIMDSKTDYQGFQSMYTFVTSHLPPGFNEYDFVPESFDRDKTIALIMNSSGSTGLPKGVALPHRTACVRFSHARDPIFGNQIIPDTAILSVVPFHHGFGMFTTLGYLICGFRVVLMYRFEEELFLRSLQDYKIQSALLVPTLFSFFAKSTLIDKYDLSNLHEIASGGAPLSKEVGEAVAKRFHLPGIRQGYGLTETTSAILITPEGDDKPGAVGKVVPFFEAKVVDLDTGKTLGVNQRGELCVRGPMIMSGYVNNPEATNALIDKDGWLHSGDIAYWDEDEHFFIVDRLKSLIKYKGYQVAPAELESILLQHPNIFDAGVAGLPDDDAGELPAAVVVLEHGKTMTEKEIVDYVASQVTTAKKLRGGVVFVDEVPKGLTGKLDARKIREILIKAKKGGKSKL

SMILES | Retained Firefly Luciferase Value (%) ([1]; inhibitor 10 μM) | Retained Firefly Luciferase Value (%) ([1]; inhibitor 100 μM) | Retained Firefly Luciferase Value (%) ([1]; inhibitor 1000 μM) | inhibitor of Renilla luciferase, grade in words [2] | Selectivity Value ([2]; inhibitor 10 μM) | Retained Renilla Luciferase Value (%) ([2]; inhibitor 10 μM) | Selectivity Value ([2]; inhibitor 100 μM) | Retained Renilla Luciferase Value (%) ([2]; inhibitor 100 μM) | Selectivity Value ([2]; inhibitor 1000 μM) | Retained Renilla Luciferase Value (%) ([2]; inhibitor 1000 μM) | remaining activity at 10 µM ([1]; inhibitor 10 μM) | remaining activity at 100 µM ([1]; inhibitor 100 μM) | remaining activity at 1000 µM ([1]; inhibitor 1000 μM) | remaining activity at 10 µM ([2]; inhibitor 10 μM) | remaining activity at 100 µM ([2]; inhibitor 100 μM) | remaining activity at 1000 µM ([2]; inhibitor 1000 μM)
CCCCCCCC[N+](C)(C)CCc1c[nH]c2ccc(/C=C/C(=O)NCc3ccc(OC)cc3)cc12.[I-] [Compound 3070, (E)-N-(2-(5-(3-(4-methoxybenzylamino)-3-oxoprop-1-enyl)-1H-indol-3-yl)ethyl)-N,N-dimethyloctan-1-ammonium iodide] | 99% | 96% | 86% | excellent inhibitors of Renilla luciferase | 3.3 | 30% | 16 | 6% | 78.2 | 1.1% |  |  |  |  |  | 
COc1ccc(CNC(=O)/C=C/c2ccc3[nH]cc(CCCN(C)C)c3c2)cc1 [Compound 3071, (E)-3-(3-(3-(dimethylamino)propyl)-1H-indol-5-yl)-N-(4-methoxybenzyl)acrylamide] |  |  |  | excellent inhibitors of Renilla luciferase | 1.8 |  | 6.7 |  | 40 |  | 101% | 101% | 100% | 57% | 15% | 2.5%
COc1cc(CNC(=O)/C=C/c2ccc3[nH]cc(CCN(C)C)c3c2)cc(OC)c1OC [Compound 3072, (E)-3-(3-(2-(dimethylamino)ethyl)-1H-indol-5-yl)-N-(3,4,5-trimethoxybenzyl)acrylamide] |  |  |  | inhibitors of Renilla luciferase | 1 |  | 1.1 |  | 1.8 |  | 101% | 101% | 101% | 101% | 95% | 55.2%
COc1cc(OC)c(CNC(=O)/C=C/c2ccc3[nH]cc(CCN(C)C)c3c2)c(OC)c1 [Compound 3073, (E)-3-(3-(2-(dimethylamino)ethyl)-1H-indol-5-yl)-N-(2,4,6-trimethoxybenzyl)acrylamide] |  |  |  | inhibitors of Renilla luciferase | 0.99 |  | 1.5 |  | 2.9 |  | 101% | 100% | 101% | 102% | 87% | 34.5%
CCCCCC[N+](C)(C)CCc1c[nH]c2ccc(/C=C/C(=O)NCc3ccc(OC)cc3)cc12.[I-] [Compound 3078, (E)-N-(2-(5-(3-(4-methoxybenzylamino)-3-oxyprop-1-enyl)-1H-indol-3-yl)ethyl)-N,N-dimethylhexan-1-aminium iodide] | 100% | 100% | 99% |  | 20 | 5.0% | 100 | 1.0% | 990 | 0.1% |  |  |  |  |  | 
